Measured values reported in ChEMBL document CHEMBL5136975, “NO-HDAC dual inhibitors” (Eur J Med Chem, 2022).

Assays:
Assay type in all cases: functional
IMR-32 [1] = assay: Antiproliferative activity against human IMR-32 cells assessed as cellular metabolic activity at 1 mM incubated for 24 hrs by MTT assay
SK-N-SH [2] = assay: Antiproliferative activity against human SK-N-SH cells assessed as cellular metabolic activity at 1 mM incubated for 24 hrs by resazurin assay
SK-N-SH [3] = assay: Antiproliferative activity against human SK-N-SH cells assessed as cellular metabolic activity at 1 mM incubated for 24 hrs by MTT assay
B104 [4] = assay: Antiproliferative activity against rat B104 cells assessed as cellular metabolic activity at 1 mM incubated for 24 hrs by MTT assay
B104 [5] = assay: Antiproliferative activity against rat B104 cells assessed as cellular metabolic activity at 1 mM incubated for 24 hrs by resazurin assay
IMR-32 [6] = assay: Antiproliferative activity against human IMR-32 cells assessed as cellular metabolic activity at 1 mM incubated for 24 hrs by resazurin assay

Structure (SMILES): N[C@@H](CCC(=O)N[C@@H](CSN=O)C(=O)NCC(=O)O)C(=O)O [S-NITROSOGLUTATHIONE]
- Activity (IMR-32 [1]): 14%
- Activity (SK-N-SH [2]): 15%
- Activity (SK-N-SH [3]): 16%
- Activity (B104 [4]): 18%
- Activity (B104 [5]): 17%
- Activity (IMR-32 [6]): 13%
